Experiments:
Experiment in all cases: scanEDGE off-target screen
Assay type in all cases: binding
[1] = molecular target: T1, 97 kinases (Homo sapiens, UniProt P27448); settings: read-out: %Ctrl MARK3
T1 construct: purchased Ambit Biosciences (scanEDGE / KINOMEscan) scanEDGE 97 kinase panel; host or cells: T7 phage in E. coli BL21-derived host; remaining kinases in HEK-293 cells

[2] = molecular target: T2, 97 kinases (Homo sapiens, UniProt O14920); settings: read-out: %Ctrl IKK-beta
T2 construct: purchased Ambit Biosciences (scanEDGE / KINOMEscan) scanEDGE 97 kinase panel; host or cells: T7 phage in E. coli BL21-derived host; remaining kinases in HEK-293 cells

[3] = molecular target: T3, 97 kinases (Homo sapiens, UniProt P04049); settings: read-out: %Ctrl RAF1
T3 construct: purchased Ambit Biosciences (scanEDGE / KINOMEscan) scanEDGE 97 kinase panel; host or cells: T7 phage in E. coli BL21-derived host; remaining kinases in HEK-293 cells

[4] = molecular target: T4, 97 kinases (Homo sapiens, UniProt P45984); settings: read-out: %Ctrl JNK2
T4 construct: purchased Ambit Biosciences (scanEDGE / KINOMEscan) scanEDGE 97 kinase panel; host or cells: T7 phage in E. coli BL21-derived host; remaining kinases in HEK-293 cells

[5] = molecular target: T5, 97 kinases (Homo sapiens, UniProt Q86V86); settings: read-out: %Ctrl PIM3
T5 construct: purchased Ambit Biosciences (scanEDGE / KINOMEscan) scanEDGE 97 kinase panel; host or cells: T7 phage in E. coli BL21-derived host; remaining kinases in HEK-293 cells

[6] = molecular target: T6, 97 kinases (Homo sapiens, UniProt P16234); settings: read-out: %Ctrl PDGFRA
T6 construct: purchased Ambit Biosciences (scanEDGE / KINOMEscan) scanEDGE 97 kinase panel; host or cells: T7 phage in E. coli BL21-derived host; remaining kinases in HEK-293 cells

[7] = molecular target: T7, 97 kinases (Homo sapiens, UniProt P49137); settings: read-out: %Ctrl MAPKAPK2
T7 construct: purchased Ambit Biosciences (scanEDGE / KINOMEscan) scanEDGE 97 kinase panel; host or cells: T7 phage in E. coli BL21-derived host; remaining kinases in HEK-293 cells

[8] = molecular target: T8, 97 kinases (Homo sapiens, UniProt Q15831); settings: read-out: %Ctrl LKB1
T8 construct: purchased Ambit Biosciences (scanEDGE / KINOMEscan) scanEDGE 97 kinase panel; host or cells: T7 phage in E. coli BL21-derived host; remaining kinases in HEK-293 cells

[9] = molecular target: T9, 97 kinases (Homo sapiens, UniProt P48736); settings: read-out: %Ctrl PIK3CG
T9 construct: purchased Ambit Biosciences (scanEDGE / KINOMEscan) scanEDGE 97 kinase panel; host or cells: T7 phage in E. coli BL21-derived host; remaining kinases in HEK-293 cells

[10] = molecular target: T10, 97 kinases (Homo sapiens, UniProt P04626); settings: read-out: %Ctrl ERBB2
T10 construct: purchased Ambit Biosciences (scanEDGE / KINOMEscan) scanEDGE 97 kinase panel; host or cells: T7 phage in E. coli BL21-derived host; remaining kinases in HEK-293 cells

[11] = molecular target: T11, 97 kinases (Homo sapiens, UniProt O15111); settings: read-out: %Ctrl IKK-alpha
T11 construct: purchased Ambit Biosciences (scanEDGE / KINOMEscan) scanEDGE 97 kinase panel; host or cells: T7 phage in E. coli BL21-derived host; remaining kinases in HEK-293 cells

[12] = molecular target: T12, 97 kinases (Homo sapiens, UniProt P07333); settings: read-out: %Ctrl CSF1R
T12 construct: purchased Ambit Biosciences (scanEDGE / KINOMEscan) scanEDGE 97 kinase panel; host or cells: T7 phage in E. coli BL21-derived host; remaining kinases in HEK-293 cells

[13] = molecular target: T13, 97 kinases (Homo sapiens, UniProt Q9BWU1); settings: read-out: %Ctrl CDK11
T13 construct: purchased Ambit Biosciences (scanEDGE / KINOMEscan) scanEDGE 97 kinase panel; host or cells: T7 phage in E. coli BL21-derived host; remaining kinases in HEK-293 cells

[14] = molecular target: T14, 97 kinases (Homo sapiens, UniProt P53350); settings: read-out: %Ctrl PLK1
T14 construct: purchased Ambit Biosciences (scanEDGE / KINOMEscan) scanEDGE 97 kinase panel; host or cells: T7 phage in E. coli BL21-derived host; remaining kinases in HEK-293 cells

[15] = molecular target: T15, 97 kinases (Homo sapiens, UniProt P10721); settings: read-out: %Ctrl KIT
T15 construct: purchased Ambit Biosciences (scanEDGE / KINOMEscan) scanEDGE 97 kinase panel; host or cells: T7 phage in E. coli BL21-derived host; remaining kinases in HEK-293 cells

[16] = molecular target: T16, 97 kinases (Homo sapiens, UniProt Q86UX6); settings: read-out: %Ctrl YANK3
T16 construct: purchased Ambit Biosciences (scanEDGE / KINOMEscan) scanEDGE 97 kinase panel; host or cells: T7 phage in E. coli BL21-derived host; remaining kinases in HEK-293 cells

[17] = molecular target: T17, 97 kinases (Homo sapiens, UniProt P09619); settings: read-out: %Ctrl PDGFRB
T17 construct: purchased Ambit Biosciences (scanEDGE / KINOMEscan) scanEDGE 97 kinase panel; host or cells: T7 phage in E. coli BL21-derived host; remaining kinases in HEK-293 cells

[18] = molecular target: T18, 97 kinases (Homo sapiens, UniProt P10721, T670I/V559D); settings: read-out: %Ctrl KIT(V559D,T670I)
T18 construct: purchased Ambit Biosciences (scanEDGE / KINOMEscan) scanEDGE 97 kinase panel; host or cells: T7 phage in E. coli BL21-derived host; remaining kinases in HEK-293 cells

[19] = molecular target: T19, 97 kinases (Homo sapiens, UniProt O00750); settings: read-out: %Ctrl PIK3C2B
T19 construct: purchased Ambit Biosciences (scanEDGE / KINOMEscan) scanEDGE 97 kinase panel; host or cells: T7 phage in E. coli BL21-derived host; remaining kinases in HEK-293 cells

[20] = molecular target: T20, 97 kinases (Homo sapiens, UniProt Q9Y463); settings: read-out: %Ctrl DYRK1B
T20 construct: purchased Ambit Biosciences (scanEDGE / KINOMEscan) scanEDGE 97 kinase panel; host or cells: T7 phage in E. coli BL21-derived host; remaining kinases in HEK-293 cells

[21] = molecular target: T21, 97 kinases (Homo sapiens, UniProt O60674); settings: read-out: %Ctrl JAK2(JH1domain-catalytic)
T21 construct: purchased Ambit Biosciences (scanEDGE / KINOMEscan) scanEDGE 97 kinase panel; host or cells: T7 phage in E. coli BL21-derived host; remaining kinases in HEK-293 cells

[22] = molecular target: T22, 97 kinases (Homo sapiens, UniProt Q9UM73); settings: read-out: %Ctrl ALK
T22 construct: purchased Ambit Biosciences (scanEDGE / KINOMEscan) scanEDGE 97 kinase panel; host or cells: T7 phage in E. coli BL21-derived host; remaining kinases in HEK-293 cells

[23] = molecular target: T23, 97 kinases (Homo sapiens, UniProt P50613); settings: read-out: %Ctrl CDK7
T23 construct: purchased Ambit Biosciences (scanEDGE / KINOMEscan) scanEDGE 97 kinase panel; host or cells: T7 phage in E. coli BL21-derived host; remaining kinases in HEK-293 cells

[24] = molecular target: T24, 97 kinases (Homo sapiens, UniProt P36888); settings: read-out: %Ctrl FLT3
T24 construct: purchased Ambit Biosciences (scanEDGE / KINOMEscan) scanEDGE 97 kinase panel; host or cells: T7 phage in E. coli BL21-derived host; remaining kinases in HEK-293 cells

[25] = molecular target: T25, 97 kinases (Homo sapiens, UniProt P35968); settings: read-out: %Ctrl VEGFR2
T25 construct: purchased Ambit Biosciences (scanEDGE / KINOMEscan) scanEDGE 97 kinase panel; host or cells: T7 phage in E. coli BL21-derived host; remaining kinases in HEK-293 cells

[26] = molecular target: T26, 97 kinases (Homo sapiens, UniProt P29317); settings: read-out: %Ctrl EPHA2
T26 construct: purchased Ambit Biosciences (scanEDGE / KINOMEscan) scanEDGE 97 kinase panel; host or cells: T7 phage in E. coli BL21-derived host; remaining kinases in HEK-293 cells

[27] = molecular target: T27, 97 kinases (Homo sapiens, UniProt Q9UPE1); settings: read-out: %Ctrl SRPK3
T27 construct: purchased Ambit Biosciences (scanEDGE / KINOMEscan) scanEDGE 97 kinase panel; host or cells: T7 phage in E. coli BL21-derived host; remaining kinases in HEK-293 cells

[28] = molecular target: T28, 97 kinases (Homo sapiens, UniProt P08069); settings: read-out: %Ctrl IGF1R
T28 construct: purchased Ambit Biosciences (scanEDGE / KINOMEscan) scanEDGE 97 kinase panel; host or cells: T7 phage in E. coli BL21-derived host; remaining kinases in HEK-293 cells

[29] = molecular target: T29, 97 kinases (Homo sapiens, UniProt Q9P1W9); settings: read-out: %Ctrl PIM2
T29 construct: purchased Ambit Biosciences (scanEDGE / KINOMEscan) scanEDGE 97 kinase panel; host or cells: T7 phage in E. coli BL21-derived host; remaining kinases in HEK-293 cells

[30] = molecular target: T30, 97 kinases (Homo sapiens, UniProt P31751); settings: read-out: %Ctrl AKT2
T30 construct: purchased Ambit Biosciences (scanEDGE / KINOMEscan) scanEDGE 97 kinase panel; host or cells: T7 phage in E. coli BL21-derived host; remaining kinases in HEK-293 cells

[31] = molecular target: T31, 97 kinases (Homo sapiens, UniProt P07949); settings: read-out: %Ctrl RET
T31 construct: purchased Ambit Biosciences (scanEDGE / KINOMEscan) scanEDGE 97 kinase panel; host or cells: T7 phage in E. coli BL21-derived host; remaining kinases in HEK-293 cells

[32] = molecular target: T32, 97 kinases (Homo sapiens, UniProt Q9BXA7); settings: read-out: %Ctrl TSSK1B
T32 construct: purchased Ambit Biosciences (scanEDGE / KINOMEscan) scanEDGE 97 kinase panel; host or cells: T7 phage in E. coli BL21-derived host; remaining kinases in HEK-293 cells

[33] = molecular target: T33, 97 kinases (Homo sapiens, UniProt P12931); settings: read-out: %Ctrl SRC
T33 construct: purchased Ambit Biosciences (scanEDGE / KINOMEscan) scanEDGE 97 kinase panel; host or cells: T7 phage in E. coli BL21-derived host; remaining kinases in HEK-293 cells

[34] = molecular target: T34, 97 kinases (Homo sapiens, UniProt Q13873); settings: read-out: %Ctrl BMPR2
T34 construct: purchased Ambit Biosciences (scanEDGE / KINOMEscan) scanEDGE 97 kinase panel; host or cells: T7 phage in E. coli BL21-derived host; remaining kinases in HEK-293 cells

[35] = molecular target: T35, 97 kinases (Homo sapiens, UniProt P15056, V600E); settings: read-out: %Ctrl BRAF(V600E)
T35 construct: purchased Ambit Biosciences (scanEDGE / KINOMEscan) scanEDGE 97 kinase panel; host or cells: T7 phage in E. coli BL21-derived host; remaining kinases in HEK-293 cells

[36] = molecular target: T36, 97 kinases (Homo sapiens, UniProt P06213); settings: read-out: %Ctrl INSR
T36 construct: purchased Ambit Biosciences (scanEDGE / KINOMEscan) scanEDGE 97 kinase panel; host or cells: T7 phage in E. coli BL21-derived host; remaining kinases in HEK-293 cells

[37] = molecular target: T37, 97 kinases (Homo sapiens, UniProt P43403); settings: read-out: %Ctrl ZAP70
T37 construct: purchased Ambit Biosciences (scanEDGE / KINOMEscan) scanEDGE 97 kinase panel; host or cells: T7 phage in E. coli BL21-derived host; remaining kinases in HEK-293 cells

[38] = molecular target: T38, 97 kinases (Homo sapiens, UniProt P36896); settings: read-out: %Ctrl ACVR1B
T38 construct: purchased Ambit Biosciences (scanEDGE / KINOMEscan) scanEDGE 97 kinase panel; host or cells: T7 phage in E. coli BL21-derived host; remaining kinases in HEK-293 cells
T38 sequence (P36896 24-505): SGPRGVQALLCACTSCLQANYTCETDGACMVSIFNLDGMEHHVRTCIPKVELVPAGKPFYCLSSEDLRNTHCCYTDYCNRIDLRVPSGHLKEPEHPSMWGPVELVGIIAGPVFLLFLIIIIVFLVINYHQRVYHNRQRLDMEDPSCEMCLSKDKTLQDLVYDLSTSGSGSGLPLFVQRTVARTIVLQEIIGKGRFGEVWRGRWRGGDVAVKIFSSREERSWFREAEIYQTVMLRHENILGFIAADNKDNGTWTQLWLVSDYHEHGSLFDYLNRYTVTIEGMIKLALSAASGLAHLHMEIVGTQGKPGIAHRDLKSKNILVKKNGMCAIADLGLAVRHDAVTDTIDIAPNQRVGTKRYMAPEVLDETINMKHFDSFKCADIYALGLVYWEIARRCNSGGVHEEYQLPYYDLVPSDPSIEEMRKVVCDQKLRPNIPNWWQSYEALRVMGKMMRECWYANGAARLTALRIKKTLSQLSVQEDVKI

T4 sequence (P45984 whole entry): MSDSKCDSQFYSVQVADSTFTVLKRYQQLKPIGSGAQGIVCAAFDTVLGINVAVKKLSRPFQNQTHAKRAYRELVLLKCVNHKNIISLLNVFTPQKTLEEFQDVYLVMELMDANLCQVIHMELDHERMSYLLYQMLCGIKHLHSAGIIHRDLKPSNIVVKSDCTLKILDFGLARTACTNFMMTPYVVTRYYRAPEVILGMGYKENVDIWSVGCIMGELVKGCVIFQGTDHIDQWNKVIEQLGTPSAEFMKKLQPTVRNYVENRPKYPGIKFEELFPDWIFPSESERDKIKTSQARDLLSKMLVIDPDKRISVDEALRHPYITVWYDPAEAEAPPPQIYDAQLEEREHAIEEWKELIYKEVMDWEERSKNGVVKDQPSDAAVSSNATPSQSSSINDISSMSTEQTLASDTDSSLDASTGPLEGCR
T31 sequence (P07949 29-1114): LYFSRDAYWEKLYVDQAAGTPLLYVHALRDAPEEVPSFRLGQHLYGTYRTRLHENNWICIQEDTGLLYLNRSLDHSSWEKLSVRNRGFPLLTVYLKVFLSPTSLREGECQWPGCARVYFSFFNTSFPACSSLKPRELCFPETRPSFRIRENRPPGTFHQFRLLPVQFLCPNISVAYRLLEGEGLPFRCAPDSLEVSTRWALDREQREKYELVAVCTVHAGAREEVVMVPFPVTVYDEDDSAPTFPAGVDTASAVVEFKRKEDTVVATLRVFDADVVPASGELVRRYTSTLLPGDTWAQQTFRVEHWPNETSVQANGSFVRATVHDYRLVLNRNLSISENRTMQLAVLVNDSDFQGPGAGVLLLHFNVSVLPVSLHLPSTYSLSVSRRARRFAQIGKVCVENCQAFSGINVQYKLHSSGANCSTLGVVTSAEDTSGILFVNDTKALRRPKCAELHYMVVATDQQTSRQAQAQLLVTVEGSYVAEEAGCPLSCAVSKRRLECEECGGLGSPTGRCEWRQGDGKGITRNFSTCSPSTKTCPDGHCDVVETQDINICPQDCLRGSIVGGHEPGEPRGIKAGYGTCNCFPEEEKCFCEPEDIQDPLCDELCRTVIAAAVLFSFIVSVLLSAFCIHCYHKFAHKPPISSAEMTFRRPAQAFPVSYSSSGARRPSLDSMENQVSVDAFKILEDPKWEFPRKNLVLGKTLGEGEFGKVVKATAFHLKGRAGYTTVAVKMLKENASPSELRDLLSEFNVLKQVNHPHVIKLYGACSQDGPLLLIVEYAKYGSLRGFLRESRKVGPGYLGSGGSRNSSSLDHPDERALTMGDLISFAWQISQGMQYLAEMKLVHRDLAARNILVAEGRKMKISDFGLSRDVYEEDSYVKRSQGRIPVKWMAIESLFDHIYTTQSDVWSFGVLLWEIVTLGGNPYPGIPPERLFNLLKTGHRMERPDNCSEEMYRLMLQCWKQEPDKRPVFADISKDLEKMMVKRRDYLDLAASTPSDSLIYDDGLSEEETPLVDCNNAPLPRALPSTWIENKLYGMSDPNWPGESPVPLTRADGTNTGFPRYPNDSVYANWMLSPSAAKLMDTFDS
T7 sequence (P49137 whole entry): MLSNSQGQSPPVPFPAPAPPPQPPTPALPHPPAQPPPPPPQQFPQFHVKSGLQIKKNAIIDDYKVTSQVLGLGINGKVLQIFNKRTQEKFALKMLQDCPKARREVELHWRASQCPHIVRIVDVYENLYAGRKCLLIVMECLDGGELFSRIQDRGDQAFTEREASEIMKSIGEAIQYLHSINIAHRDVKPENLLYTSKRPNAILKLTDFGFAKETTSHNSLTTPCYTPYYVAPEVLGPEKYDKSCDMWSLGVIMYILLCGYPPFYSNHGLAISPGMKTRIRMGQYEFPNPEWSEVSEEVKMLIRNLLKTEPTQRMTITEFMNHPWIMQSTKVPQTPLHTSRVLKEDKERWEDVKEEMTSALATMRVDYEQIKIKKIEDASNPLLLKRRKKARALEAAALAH
T11 sequence (O15111 whole entry): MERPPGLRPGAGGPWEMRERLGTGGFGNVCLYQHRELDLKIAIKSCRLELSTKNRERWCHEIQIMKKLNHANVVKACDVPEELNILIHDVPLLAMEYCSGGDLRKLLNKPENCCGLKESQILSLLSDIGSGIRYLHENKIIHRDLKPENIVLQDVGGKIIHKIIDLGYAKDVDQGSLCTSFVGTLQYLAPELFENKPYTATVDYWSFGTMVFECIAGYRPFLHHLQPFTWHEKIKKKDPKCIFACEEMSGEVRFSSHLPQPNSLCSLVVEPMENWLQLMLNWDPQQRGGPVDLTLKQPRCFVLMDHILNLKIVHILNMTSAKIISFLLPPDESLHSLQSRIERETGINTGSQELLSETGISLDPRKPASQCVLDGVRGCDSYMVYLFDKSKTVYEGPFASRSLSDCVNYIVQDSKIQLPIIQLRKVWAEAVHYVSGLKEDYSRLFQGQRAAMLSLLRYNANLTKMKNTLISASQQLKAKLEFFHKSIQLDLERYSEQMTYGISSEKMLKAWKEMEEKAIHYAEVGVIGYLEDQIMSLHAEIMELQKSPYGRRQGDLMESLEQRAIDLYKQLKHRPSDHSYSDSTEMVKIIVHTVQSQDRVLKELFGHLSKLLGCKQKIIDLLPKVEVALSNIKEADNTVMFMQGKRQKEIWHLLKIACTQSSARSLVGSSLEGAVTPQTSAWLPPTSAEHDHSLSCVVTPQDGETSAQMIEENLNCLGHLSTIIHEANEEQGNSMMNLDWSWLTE
T20 sequence (Q9Y463 whole entry): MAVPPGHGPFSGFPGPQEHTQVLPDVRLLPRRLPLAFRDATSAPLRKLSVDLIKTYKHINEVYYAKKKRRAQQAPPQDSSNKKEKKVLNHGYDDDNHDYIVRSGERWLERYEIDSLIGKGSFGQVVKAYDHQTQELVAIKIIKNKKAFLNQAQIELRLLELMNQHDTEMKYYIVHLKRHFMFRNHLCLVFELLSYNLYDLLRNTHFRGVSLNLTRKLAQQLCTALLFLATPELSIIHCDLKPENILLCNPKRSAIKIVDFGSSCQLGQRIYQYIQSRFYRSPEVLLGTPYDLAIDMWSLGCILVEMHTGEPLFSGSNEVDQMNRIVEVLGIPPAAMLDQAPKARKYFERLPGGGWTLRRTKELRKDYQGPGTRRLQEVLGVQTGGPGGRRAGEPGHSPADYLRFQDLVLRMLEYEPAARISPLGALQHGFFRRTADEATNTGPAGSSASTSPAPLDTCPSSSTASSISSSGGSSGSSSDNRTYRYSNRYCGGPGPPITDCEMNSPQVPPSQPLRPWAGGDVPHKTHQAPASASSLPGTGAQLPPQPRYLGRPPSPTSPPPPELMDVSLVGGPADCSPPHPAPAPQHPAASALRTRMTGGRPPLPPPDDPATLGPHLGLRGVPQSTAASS
T27 sequence (Q9UPE1 whole entry): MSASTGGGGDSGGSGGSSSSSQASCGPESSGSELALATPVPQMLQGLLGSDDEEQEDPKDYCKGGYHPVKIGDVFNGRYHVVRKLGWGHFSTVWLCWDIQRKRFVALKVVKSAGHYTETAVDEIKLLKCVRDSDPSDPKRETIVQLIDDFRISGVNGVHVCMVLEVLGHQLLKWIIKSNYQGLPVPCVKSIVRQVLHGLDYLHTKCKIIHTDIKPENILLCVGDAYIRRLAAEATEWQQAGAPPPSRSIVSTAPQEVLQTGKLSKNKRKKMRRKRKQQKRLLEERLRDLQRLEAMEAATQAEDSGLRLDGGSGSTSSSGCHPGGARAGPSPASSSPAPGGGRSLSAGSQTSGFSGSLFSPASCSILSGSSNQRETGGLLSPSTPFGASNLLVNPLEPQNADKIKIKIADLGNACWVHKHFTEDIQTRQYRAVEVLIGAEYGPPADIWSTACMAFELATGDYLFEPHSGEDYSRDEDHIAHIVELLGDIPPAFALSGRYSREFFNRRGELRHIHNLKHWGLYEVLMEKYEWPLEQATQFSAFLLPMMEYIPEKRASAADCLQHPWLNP
T14 sequence (P53350 whole entry): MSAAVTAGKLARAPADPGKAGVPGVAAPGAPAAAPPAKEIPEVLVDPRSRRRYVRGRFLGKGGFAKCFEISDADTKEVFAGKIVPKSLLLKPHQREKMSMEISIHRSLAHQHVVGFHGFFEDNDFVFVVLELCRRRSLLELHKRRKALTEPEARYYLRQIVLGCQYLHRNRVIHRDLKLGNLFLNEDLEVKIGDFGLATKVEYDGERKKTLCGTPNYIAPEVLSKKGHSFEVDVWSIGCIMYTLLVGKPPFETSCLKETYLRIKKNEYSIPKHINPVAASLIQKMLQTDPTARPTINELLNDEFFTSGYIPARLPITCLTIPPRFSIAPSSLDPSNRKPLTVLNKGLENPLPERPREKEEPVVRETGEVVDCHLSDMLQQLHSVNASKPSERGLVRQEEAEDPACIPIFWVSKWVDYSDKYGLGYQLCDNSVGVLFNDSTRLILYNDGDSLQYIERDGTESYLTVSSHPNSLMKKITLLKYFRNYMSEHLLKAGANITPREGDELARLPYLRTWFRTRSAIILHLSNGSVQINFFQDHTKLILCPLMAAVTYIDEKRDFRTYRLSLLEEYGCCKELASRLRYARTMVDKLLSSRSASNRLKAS

CC(C)(C)CNCCn1c(Sc2cc3c(cc2I)OCO3)nc2c(N)ncnc21 [Compound 85]
remaining binding at 10 µM [1]: 100%
remaining binding at 10 µM [2]: 88%
remaining binding at 10 µM [3]: 74%
remaining binding at 10 µM [4]: 93%
remaining binding at 10 µM [5]: 91%
remaining binding at 10 µM [6]: 100%
remaining binding at 10 µM [7]: 96%
remaining binding at 10 µM [8]: 81%
remaining binding at 10 µM [9]: 94%
remaining binding at 10 µM [10]: 100%
remaining binding at 10 µM [11]: 99%
remaining binding at 10 µM [12]: 94%
remaining binding at 10 µM [13]: 90%
remaining binding at 10 µM [14]: 97%
remaining binding at 10 µM [15]: 99%
remaining binding at 10 µM [16]: 95%
remaining binding at 10 µM [17]: 98%
remaining binding at 10 µM [18]: 96%
remaining binding at 10 µM [19]: 96%
remaining binding at 10 µM [20]: 36%
remaining binding at 10 µM [21]: 100%
remaining binding at 10 µM [22]: 93%
remaining binding at 10 µM [23]: 79%
remaining binding at 10 µM [24]: 100%
remaining binding at 10 µM [25]: 98%
remaining binding at 10 µM [26]: 91%
remaining binding at 10 µM [27]: 100%
remaining binding at 10 µM [28]: 100%
remaining binding at 10 µM [29]: 81%
remaining binding at 10 µM [30]: 87%
remaining binding at 10 µM [31]: 100%
remaining binding at 10 µM [32]: 51%
remaining binding at 10 µM [33]: 100%
remaining binding at 10 µM [34]: 97%
remaining binding at 10 µM [35]: 97%
remaining binding at 10 µM [36]: 92%
remaining binding at 10 µM [37]: 78%
remaining binding at 10 µM [38]: 83%
